Experimental data reported in PMC5564600 (Oncotarget, 2017).
Like-named read-outs stand apart in the source and are kept apart here.

Experiments:
Experiment in all cases: biochemical
Type in all cases: binding
[1] = target: T1, panel of 442 kinases (Homo sapiens, UniProt O15530); settings: kinase PDPK1; for remaining activity at 1 µM: read-out: % of control at 1 µM
T1 construct: purchased Ambit Biosciences (scanMAXX KINOMEscan)
T1 sequence (O15530 1-556): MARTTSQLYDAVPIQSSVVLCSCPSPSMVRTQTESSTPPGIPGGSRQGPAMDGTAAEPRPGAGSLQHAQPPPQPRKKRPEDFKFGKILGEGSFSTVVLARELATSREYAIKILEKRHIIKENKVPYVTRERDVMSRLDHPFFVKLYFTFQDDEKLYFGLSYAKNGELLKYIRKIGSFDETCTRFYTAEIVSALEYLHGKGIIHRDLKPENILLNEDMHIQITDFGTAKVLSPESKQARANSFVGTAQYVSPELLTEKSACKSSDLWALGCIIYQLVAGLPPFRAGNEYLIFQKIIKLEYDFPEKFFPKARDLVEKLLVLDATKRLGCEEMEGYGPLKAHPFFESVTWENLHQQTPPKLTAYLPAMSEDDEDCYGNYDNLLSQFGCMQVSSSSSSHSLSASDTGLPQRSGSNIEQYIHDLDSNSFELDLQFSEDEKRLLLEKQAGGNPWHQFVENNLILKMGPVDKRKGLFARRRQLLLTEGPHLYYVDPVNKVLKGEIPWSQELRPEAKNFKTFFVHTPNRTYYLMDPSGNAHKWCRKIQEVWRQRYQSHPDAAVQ

[2] = target: T2, panel of 442 kinases (Homo sapiens, UniProt P11309); settings: kinase PIM1; for remaining activity at 1 µM: read-out: % of control at 1 µM
T2 construct: purchased Ambit Biosciences (scanMAXX KINOMEscan)

[3] = target: T3, panel of 442 kinases (Homo sapiens, UniProt P42345); settings: kinase MTOR; for remaining activity at 1 µM: read-out: % of control at 1 µM
T3 construct: purchased Ambit Biosciences (scanMAXX KINOMEscan)

[4] = target: T4, panel of 442 kinases (Homo sapiens, UniProt P53671); settings: kinase LIMK2; for remaining activity at 1 µM: read-out: % of control at 1 µM
T4 construct: purchased Ambit Biosciences (scanMAXX KINOMEscan)

[5] = target: T5, panel of 442 kinases (Homo sapiens, UniProt Q00526); settings: CDK3; for remaining activity at 1 µM: read-out: % of control at 1 µM
T5 construct: purchased Ambit Biosciences (scanMAXX KINOMEscan)

[6] = target: T6, panel of 442 kinases (Homo sapiens, UniProt Q08881); settings: kinase ITK; for remaining activity at 1 µM: read-out: % of control at 1 µM
T6 construct: purchased Ambit Biosciences (scanMAXX KINOMEscan)
T6 sequence (Q08881 1-620): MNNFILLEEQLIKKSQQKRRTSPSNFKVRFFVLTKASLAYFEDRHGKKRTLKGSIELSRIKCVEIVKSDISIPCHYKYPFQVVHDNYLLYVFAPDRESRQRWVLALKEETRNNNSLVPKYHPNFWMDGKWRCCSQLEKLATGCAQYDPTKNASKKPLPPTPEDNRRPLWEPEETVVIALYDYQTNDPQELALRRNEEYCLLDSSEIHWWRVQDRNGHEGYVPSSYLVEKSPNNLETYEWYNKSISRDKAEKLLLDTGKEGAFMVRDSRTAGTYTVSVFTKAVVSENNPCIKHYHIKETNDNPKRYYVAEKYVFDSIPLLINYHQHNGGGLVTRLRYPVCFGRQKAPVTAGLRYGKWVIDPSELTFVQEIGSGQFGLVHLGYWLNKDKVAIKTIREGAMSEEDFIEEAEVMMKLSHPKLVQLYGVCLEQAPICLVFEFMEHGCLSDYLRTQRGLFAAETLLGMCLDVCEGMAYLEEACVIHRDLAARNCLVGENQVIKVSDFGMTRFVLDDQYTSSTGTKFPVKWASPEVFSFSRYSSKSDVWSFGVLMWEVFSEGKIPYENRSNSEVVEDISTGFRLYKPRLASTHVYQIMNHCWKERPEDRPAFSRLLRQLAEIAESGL

[7] = target: T7, panel of 442 kinases (Homo sapiens, UniProt Q12866); settings: kinase MERTK; for remaining activity at 1 µM: read-out: % of control at 1 µM
T7 construct: purchased Ambit Biosciences (scanMAXX KINOMEscan)
T7 sequence (Q12866 21-999): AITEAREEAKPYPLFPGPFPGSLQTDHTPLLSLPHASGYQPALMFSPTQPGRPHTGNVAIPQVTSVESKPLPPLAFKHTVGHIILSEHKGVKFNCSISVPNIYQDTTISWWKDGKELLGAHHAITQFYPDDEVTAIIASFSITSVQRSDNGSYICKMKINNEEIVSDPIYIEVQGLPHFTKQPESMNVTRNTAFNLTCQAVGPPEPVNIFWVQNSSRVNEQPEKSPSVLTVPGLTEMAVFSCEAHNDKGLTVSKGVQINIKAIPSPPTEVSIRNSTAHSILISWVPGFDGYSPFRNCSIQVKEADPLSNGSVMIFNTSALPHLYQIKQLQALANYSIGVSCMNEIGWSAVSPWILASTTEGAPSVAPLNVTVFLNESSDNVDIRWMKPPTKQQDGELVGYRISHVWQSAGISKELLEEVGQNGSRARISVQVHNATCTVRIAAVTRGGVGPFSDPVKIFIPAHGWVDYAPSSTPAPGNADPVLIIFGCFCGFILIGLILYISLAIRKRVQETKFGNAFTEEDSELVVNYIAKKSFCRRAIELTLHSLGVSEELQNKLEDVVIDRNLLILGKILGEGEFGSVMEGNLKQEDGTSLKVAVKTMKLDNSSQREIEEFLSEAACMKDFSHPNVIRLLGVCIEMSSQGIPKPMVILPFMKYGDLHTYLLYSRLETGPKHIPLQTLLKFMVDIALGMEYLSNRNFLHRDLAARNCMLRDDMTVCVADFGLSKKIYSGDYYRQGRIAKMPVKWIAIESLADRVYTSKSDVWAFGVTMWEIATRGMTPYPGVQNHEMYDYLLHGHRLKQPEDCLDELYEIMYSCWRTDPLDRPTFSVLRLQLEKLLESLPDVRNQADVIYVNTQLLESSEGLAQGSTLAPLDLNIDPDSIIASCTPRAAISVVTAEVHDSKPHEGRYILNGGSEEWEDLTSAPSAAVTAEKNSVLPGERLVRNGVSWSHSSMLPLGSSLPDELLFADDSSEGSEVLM

[8] = target: T8, panel of 442 kinases (Homo sapiens, UniProt Q14004); settings: for remaining activity at 1 µM: read-out: % of control at 1 µM; for remaining activity at 10 µM: read-out: % of control at 10 µM
T8 construct: purchased Ambit Biosciences (scanMAXX KINOMEscan)

[9] = target: T9, panel of 442 kinases (Homo sapiens, UniProt Q9H422); settings: kinase HIPK3; for remaining activity at 1 µM: read-out: % of control at 1 µM
T9 construct: purchased Ambit Biosciences (scanMAXX KINOMEscan)

[10] = target: T10, panel of 442 kinases (Homo sapiens, UniProt Q9UKE5); settings: kinase TNIK; for remaining activity at 1 µM: read-out: TNIK (% of control at 1 µM)
T10 construct: purchased Ambit Biosciences (scanMAXX KINOMEscan)

[11] = 10 µM, read-out: % of control at 10 µM

T10 sequence (Q9UKE5 whole entry): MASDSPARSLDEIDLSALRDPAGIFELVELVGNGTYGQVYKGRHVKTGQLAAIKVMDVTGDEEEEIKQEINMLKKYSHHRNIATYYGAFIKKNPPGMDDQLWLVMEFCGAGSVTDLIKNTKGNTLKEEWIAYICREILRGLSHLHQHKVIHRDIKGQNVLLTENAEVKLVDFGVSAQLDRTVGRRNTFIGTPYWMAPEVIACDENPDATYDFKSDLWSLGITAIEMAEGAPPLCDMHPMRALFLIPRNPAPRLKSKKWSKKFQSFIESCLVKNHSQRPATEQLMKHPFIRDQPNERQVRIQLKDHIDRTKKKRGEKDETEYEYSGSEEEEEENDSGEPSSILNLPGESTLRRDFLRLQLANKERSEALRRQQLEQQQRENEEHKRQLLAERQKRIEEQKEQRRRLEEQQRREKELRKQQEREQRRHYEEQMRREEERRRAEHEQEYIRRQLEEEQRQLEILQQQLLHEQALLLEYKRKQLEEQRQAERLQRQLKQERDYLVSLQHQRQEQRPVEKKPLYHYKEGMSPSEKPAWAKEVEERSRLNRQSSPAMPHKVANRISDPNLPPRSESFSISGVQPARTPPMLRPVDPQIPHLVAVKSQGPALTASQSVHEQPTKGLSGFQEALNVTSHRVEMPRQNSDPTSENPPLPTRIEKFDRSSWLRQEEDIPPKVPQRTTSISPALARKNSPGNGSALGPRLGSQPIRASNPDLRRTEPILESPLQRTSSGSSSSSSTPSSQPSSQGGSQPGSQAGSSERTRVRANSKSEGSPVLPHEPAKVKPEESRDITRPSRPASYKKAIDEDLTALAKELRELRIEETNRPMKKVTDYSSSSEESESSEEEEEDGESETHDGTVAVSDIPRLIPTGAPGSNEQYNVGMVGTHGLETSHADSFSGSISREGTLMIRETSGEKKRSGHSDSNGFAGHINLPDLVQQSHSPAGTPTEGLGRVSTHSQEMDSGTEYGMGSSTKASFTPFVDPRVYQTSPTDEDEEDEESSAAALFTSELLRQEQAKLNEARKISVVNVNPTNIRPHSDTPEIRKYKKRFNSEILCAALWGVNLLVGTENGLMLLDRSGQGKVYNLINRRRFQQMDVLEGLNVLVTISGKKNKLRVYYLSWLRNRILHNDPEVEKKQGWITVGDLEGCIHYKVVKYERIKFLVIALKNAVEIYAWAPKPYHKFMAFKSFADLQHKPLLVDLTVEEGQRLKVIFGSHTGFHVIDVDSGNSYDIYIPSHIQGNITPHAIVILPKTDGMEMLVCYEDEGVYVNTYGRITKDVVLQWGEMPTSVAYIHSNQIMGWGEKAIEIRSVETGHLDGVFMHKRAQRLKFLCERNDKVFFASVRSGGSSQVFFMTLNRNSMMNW
T4 sequence (P53671 whole entry): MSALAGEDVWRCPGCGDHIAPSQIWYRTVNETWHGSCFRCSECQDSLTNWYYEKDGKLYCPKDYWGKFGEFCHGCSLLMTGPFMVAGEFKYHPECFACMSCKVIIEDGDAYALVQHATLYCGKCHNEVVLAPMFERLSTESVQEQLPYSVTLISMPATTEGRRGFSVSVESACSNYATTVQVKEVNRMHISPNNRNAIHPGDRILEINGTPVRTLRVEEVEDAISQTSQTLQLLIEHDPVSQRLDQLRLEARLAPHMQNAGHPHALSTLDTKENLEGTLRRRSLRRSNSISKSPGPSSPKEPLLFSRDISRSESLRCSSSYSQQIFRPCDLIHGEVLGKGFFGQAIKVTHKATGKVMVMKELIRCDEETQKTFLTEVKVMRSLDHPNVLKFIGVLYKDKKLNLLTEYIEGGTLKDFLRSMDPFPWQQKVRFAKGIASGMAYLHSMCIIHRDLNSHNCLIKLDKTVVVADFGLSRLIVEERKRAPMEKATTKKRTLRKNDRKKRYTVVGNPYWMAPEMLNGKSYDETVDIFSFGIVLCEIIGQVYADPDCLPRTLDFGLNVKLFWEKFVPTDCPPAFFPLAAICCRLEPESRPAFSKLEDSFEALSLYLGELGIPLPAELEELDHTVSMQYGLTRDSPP
T9 sequence (Q9H422 whole entry): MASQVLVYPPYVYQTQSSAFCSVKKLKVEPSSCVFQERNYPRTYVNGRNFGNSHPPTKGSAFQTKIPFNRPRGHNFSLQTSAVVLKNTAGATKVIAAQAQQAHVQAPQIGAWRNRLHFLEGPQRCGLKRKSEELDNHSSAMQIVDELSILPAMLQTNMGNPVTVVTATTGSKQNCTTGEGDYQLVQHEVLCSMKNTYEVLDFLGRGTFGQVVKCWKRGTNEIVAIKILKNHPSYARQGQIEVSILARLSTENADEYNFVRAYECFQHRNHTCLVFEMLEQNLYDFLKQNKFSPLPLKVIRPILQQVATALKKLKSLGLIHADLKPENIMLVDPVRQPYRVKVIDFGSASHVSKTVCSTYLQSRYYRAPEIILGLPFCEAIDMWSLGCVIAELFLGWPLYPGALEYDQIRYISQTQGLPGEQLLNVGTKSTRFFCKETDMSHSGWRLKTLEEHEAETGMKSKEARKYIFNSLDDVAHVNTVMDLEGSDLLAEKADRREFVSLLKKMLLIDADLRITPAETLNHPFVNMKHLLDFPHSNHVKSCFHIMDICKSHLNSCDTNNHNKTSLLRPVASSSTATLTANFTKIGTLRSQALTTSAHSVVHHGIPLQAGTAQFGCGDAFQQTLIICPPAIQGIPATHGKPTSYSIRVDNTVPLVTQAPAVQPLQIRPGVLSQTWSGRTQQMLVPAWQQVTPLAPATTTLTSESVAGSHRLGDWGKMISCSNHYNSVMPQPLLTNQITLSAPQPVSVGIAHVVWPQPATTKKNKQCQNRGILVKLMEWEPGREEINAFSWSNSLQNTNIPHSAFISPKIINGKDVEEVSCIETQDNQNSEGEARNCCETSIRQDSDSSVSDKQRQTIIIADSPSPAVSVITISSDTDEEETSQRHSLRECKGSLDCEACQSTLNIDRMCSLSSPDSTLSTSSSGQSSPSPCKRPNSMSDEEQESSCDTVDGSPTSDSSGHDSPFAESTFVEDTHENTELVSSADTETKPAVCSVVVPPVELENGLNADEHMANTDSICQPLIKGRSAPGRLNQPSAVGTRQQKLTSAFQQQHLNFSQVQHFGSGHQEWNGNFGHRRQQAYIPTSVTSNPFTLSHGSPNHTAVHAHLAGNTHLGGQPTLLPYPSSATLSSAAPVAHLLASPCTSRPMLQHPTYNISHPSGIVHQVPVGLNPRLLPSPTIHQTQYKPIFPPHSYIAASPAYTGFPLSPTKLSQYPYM
T5 sequence (Q00526 whole entry): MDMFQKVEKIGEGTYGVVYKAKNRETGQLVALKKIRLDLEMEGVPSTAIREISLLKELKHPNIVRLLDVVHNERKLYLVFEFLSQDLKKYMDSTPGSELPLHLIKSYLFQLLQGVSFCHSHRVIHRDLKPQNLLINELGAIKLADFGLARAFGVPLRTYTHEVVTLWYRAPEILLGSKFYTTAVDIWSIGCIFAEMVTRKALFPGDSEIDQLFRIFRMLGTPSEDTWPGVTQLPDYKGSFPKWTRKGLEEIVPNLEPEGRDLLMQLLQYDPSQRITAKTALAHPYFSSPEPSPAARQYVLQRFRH
T8 sequence (Q14004 whole entry): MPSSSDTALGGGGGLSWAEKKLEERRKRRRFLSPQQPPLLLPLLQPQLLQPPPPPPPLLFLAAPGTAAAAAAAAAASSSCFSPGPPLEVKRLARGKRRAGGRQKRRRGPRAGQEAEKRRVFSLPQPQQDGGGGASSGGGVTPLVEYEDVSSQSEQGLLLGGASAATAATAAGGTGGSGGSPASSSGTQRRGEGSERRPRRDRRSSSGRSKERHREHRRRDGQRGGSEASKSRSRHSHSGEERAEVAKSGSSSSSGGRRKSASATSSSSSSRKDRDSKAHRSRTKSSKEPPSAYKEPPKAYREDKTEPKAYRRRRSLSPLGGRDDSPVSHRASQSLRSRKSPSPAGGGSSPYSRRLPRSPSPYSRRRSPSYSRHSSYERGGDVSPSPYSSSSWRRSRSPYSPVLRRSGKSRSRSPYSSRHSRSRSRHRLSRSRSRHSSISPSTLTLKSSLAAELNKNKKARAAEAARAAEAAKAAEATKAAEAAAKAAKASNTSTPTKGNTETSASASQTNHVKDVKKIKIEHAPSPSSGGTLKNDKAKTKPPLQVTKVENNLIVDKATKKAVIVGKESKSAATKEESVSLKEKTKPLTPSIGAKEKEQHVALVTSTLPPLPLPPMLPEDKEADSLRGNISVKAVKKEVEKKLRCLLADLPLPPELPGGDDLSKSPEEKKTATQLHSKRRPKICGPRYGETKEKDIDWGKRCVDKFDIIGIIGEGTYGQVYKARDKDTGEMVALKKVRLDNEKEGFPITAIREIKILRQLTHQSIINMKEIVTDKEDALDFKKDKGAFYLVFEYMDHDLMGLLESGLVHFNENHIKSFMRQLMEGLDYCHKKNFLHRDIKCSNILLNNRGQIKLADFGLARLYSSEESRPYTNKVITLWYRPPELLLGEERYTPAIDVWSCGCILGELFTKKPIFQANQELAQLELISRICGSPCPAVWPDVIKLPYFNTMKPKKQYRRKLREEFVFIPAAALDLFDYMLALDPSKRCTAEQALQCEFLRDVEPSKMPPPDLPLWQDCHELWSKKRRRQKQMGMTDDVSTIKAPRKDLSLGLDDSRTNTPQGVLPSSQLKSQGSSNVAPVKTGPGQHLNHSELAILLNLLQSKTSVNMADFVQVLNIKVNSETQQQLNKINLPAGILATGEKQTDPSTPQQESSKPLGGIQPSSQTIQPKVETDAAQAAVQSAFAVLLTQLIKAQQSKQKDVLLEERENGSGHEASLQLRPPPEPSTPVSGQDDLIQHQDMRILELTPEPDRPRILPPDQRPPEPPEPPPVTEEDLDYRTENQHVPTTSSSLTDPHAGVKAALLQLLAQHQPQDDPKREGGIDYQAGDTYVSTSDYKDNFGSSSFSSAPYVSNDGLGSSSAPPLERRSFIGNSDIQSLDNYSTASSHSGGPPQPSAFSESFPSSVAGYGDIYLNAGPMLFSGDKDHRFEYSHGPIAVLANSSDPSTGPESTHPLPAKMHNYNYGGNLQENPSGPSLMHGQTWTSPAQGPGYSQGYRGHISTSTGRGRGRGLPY

SMILES | remaining activity at 1 µM [1] [%] | remaining activity at 1 µM [2] [%] | remaining activity at 1 µM [3] [%] | remaining activity at 1 µM [4] [%] | remaining activity at 1 µM [5] [%] | remaining activity at 1 µM [6] [%] | remaining activity at 1 µM [7] [%] | remaining activity at 1 µM ([8]; CDC2L5, 1 µM) [%] | remaining activity at 10 µM ([8]; CDC2L5) [%] | remaining activity at 1 µM [9] [%] | remaining activity at 1 µM [10] [%] | also measured
Nc1cc(C(F)(F)F)c(-c2cc(N3CCOCC3)nc(N3CCOCC3)n2)cn1 [Buparlisib] | 89 | 87 | 20 | 100 | 100 | 100 | 98 | 75 | 100 | 92 | 100 | remaining activity at 10 µM [1, 11]: 100%; remaining activity at 10 µM [2, 11]: 100%; remaining activity at 10 µM [3, 11]: 4.6%; remaining activity at 10 µM [4, 11]: 100%; remaining activity at 10 µM [5, 11]: 100%; remaining activity at 10 µM [6, 11]: 100%; remaining activity at 10 µM [7, 11]: 95%; remaining activity at 10 µM [9, 11]: 98%; remaining activity at 10 µM ([10]; 10 µM, read-out: TNIK (% of control at 10 µM)): 100%
Cn1c(=O)n(-c2ccc(C(C)(C)C#N)cc2)c2c3cc(-c4cnc5ccccc5c4)ccc3ncc21 [Dactolisib, 2-methyl-2-[4-(3-methyl-2-oxo-8-quinolin-3-yl-2,3-dihydroimidazo[4,5-c]quinolin-1-yl)-phenyl] propionitrile] | 90 | 100 | 0 | 91 | 100 | 91 | 80 | 87 |  | 94 |  | 
COc1ncc(-c2ccc3nccc(-c4ccnnc4)c3c2)cc1NS(=O)(=O)c1ccc(F)cc1F [Omipalisib] | 96 | 100 | 0 | 89 | 82 | 86 | 100 | 100 |  | 88 | 100 | 
CS(=O)(=O)N1CCN(Cc2cc3nc(-c4cccc5[nH]ncc45)nc(N4CCOCC4)c3s2)CC1 [Pictilisib, 2-(1H-indazol-4-yl)-6-(4-methanesulfonyl-piperazin-1-ylmethyl)-4-morpholin-4-yl-t hieno[3,2-d]pyrimidine] |  |  |  |  |  |  |  | 70 | 100 |  |  | 
FC(F)c1nc2ccccc2n1-c1nc(N2CCOCC2)nc(N2CCOCC2)n1 [ZSTK474, 2-(difluoromethyl)-1-[4,6-di(4-morpholinyl)-1,3,5-triazin-2-yl]-1H-benzimidazole] | 100 | 100 | 0.75 | 100 | 100 | 97 | 84 |  |  | 89 | 100 | remaining activity at 1 µM [8]: 100%
